According to patent US7192924B2, “Corticotropin releasing factor 2 receptor agonists” (priority 2002, dated 2007):
pEC50: −log10 of the molar value. Read-outs that look alike come from different tables or passages of the source. Ends that are not written are not given here. Peptide text beside a SMILES is read from it.

Columns and labels:
[1] = target: T1, CRF2R (Homo sapiens, UniProt Q13324); test: CRF2R agonist activity (EC50, Emax), called comparative CRF binding; type: cell-based
T1 sequence (Q13324 1-411): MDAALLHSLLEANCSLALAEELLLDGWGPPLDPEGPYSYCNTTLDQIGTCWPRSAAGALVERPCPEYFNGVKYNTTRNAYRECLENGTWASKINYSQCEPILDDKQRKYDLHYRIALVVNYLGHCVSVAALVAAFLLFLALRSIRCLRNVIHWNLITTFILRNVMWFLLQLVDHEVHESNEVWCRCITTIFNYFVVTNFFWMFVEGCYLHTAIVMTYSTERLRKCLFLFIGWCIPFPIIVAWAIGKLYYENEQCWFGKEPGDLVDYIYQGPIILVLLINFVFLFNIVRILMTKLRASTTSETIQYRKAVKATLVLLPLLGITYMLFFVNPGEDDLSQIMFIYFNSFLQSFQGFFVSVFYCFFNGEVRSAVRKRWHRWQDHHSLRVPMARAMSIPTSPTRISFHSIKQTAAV
In short: (§1)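 Cells expressing only CRF1R or CRF2R (recombinant, or with the other receptor disabled or its signal subtracted) were treated with peptide or vehicle control. Activation was read as cAMP induction in cell lysates or via a cAMP-responsive-element reporter gene.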

[2] = target: T2, CRF1R (Homo sapiens, UniProt P34998); test: CRF1R agonist activity (EC50, Emax), called comparative CRF binding; type: cell-based
T2 sequence (P34998 24-415): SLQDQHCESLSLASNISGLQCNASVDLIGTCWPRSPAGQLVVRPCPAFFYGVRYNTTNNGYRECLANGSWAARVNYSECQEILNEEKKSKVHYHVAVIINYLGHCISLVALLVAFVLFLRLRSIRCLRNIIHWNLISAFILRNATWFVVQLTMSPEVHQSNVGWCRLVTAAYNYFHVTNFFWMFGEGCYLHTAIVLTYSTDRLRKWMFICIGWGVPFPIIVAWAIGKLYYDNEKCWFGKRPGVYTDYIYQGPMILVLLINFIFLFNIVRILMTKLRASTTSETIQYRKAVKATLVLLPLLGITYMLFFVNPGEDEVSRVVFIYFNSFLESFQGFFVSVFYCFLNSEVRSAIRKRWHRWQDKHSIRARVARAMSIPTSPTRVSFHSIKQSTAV
In short: as §1

Row | Compound | pEC50 ([1]; read-out: CRF2R EC50) | pEC50 ([2]; read-out: CRF1R EC50) | pEC50 [1] | pEC50 [2]
1 | CC[C@H](C)[C@H](N)C(=O)N[C@H](C(=O)N[C@@H](CC(C)C)C(=O)N[C@@H](CO)C(=O)N[C@@H](CC(C)C)C(=O)N[C@@H](CC(=O)O)C(=O)N[C@H](C(=O)N1CCC[C@H]1C(=O)N[C@H](C(=O)NCC(=O)N[C@@H](CC(C)C)C(=O)N[C@@H](CC(C)C)C(=O)N[C@@H](CCC(N)=O)C(=O)N[C@@H](CCC(=O)O)C(=O)N[C@@H](CC(C)C)C(=O)N[C@@H](CC(C)C)C(=O)N[C@@H](CCC(=O)O)C(=O)N[C@@H](CCSC)C(=O)N[C@@H](C)C(=O)N[C@@H](CCCNC(=N)N)C(=O)N[C@@H](C)C(=O)N[C@@H](CCC(=O)O)C(=O)N[C@@H](CCC(N)=O)C(=O)N[C@@H](CC(C)C)C(=O)N[C@@H](C)C(=O)N[C@@H](CCC(N)=O)C(=O)N[C@@H](CCC(N)=O)C(=O)N[C@@H](C)C(=O)N[C@@H](Cc1c[nH]cn1)C(=O)N[C@@H](CO)C(=O)N[C@@H](CC(N)=O)C(=O)N[C@@H](CCCNC(=N)N)C(=O)N[C@@H](CCCCN)C(=O)N[C@@H](CC(C)C)C(=O)N[C@@H](CCSC)C(=O)N[C@@H](CCC(=O)O)C(=O)N[C@H](C(=O)N[C@H](C(N)=O)[C@@H](C)CC)[C@@H](C)CC)[C@@H](C)CC)C(C)C)C(C)C [compound 1] (H-IVLSLDVPIGLLQELLEMARAEQLAQQAHSNRKLMEII-NH2; N-terminus assumed) | 7.50 | 6.11 |  | 
2 | CC[C@H](C)[C@H](NC(=O)[C@H](CCCNC(=N)N)NC(=O)[C@H](C)NC(=O)[C@H](CC(N)=O)NC(=O)[C@H](CCC(N)=O)NC(=O)[C@H](CCC(=O)O)NC(=O)[C@H](C)NC(=O)[C@H](CCCNC(=N)N)NC(=O)[C@H](CCC(=O)O)NC(=O)[C@H](CCCNC(=N)N)NC(=O)[C@H](CCC(N)=O)NC(=O)[C@H](CO)NC(=O)[C@H](CCC(N)=O)NC(=O)[C@@H](NC(=O)[C@H](CCCCN)NC(=O)[C@H](CCC(=O)O)NC(=O)[C@H](CC(C)C)NC(=O)[C@H](CCC(=O)O)NC(=O)[C@H](CC(C)C)NC(=O)[C@H](CC(C)C)NC(=O)[C@@H](NC(=O)[C@H](CCCNC(=N)N)NC(=O)[C@H](CC(C)C)NC(=O)[C@H](CC(C)C)NC(=O)[C@H](CC(C)C)NC(=O)[C@H](CC(C)C)NC(=O)[C@@H]1CCCN1C(=O)[C@H](CC(C)C)NC(=O)[C@H](CC(=O)O)NC(=O)[C@@H](NC(=O)[C@H](CO)NC(=O)[C@H](CC(C)C)NC(=O)[C@H](CO)NC(=O)[C@@H]1CCCN1C(=O)[C@H](CC(N)=O)NC(=O)[C@@H](N)CC(=O)O)[C@@H](C)CC)[C@@H](C)O)[C@@H](C)O)C(=O)N[C@@H](Cc1ccccc1)C(=O)N[C@@H](CC(=O)O)C(=O)N[C@@H](CCCNC(=N)N)C(=O)N[C@H](C(N)=O)C(C)C [compound 338] (H-DNPSLSIDLPLLLLRTLLELEKTQSQRERAEQNARIFDRV-NH2; N-terminus assumed) | 7.71 | ≤ 6.00 |  | 
3 | CC[C@H](C)[C@H](NC(=O)[C@H](C)NC(=O)[C@H](CC(N)=O)NC(=O)[C@H](CCC(N)=O)NC(=O)[C@H](CCC(=O)O)NC(=O)[C@H](C)NC(=O)[C@H](CCCNC(=N)N)NC(=O)[C@H](CCC(=O)O)NC(=O)[C@H](CCCNC(=N)N)NC(=O)[C@H](CCC(N)=O)NC(=O)[C@H](CO)NC(=O)[C@H](CCC(N)=O)NC(=O)[C@@H](NC(=O)[C@H](CCCNC(=N)N)NC(=O)[C@H](C)NC(=O)[C@H](CC(C)C)NC(=O)[C@H](CCC(=O)O)NC(=O)[C@H](CC(C)C)NC(=O)[C@H](CC(C)C)NC(=O)[C@@H](NC(=O)[C@H](CCCNC(=N)N)NC(=O)[C@H](CC(C)C)NC(=O)[C@H](CC(C)C)NC(=O)[C@H](Cc1ccc(O)cc1)NC(=O)[C@H](Cc1ccccc1)NC(=O)[C@@H]1CCCN1C(=O)[C@H](CC(C)C)NC(=O)[C@H](CC(=O)O)NC(=O)[C@@H](NC(=O)[C@H](CO)NC(=O)[C@H](CC(C)C)NC(=O)[C@H](CO)NC(=O)[C@@H]1CCCN1C(=O)[C@H](CC(N)=O)NC(=O)[C@@H](N)CC(=O)O)[C@@H](C)CC)[C@@H](C)O)[C@@H](C)O)C(=O)N[C@H](C(=O)N[C@@H](Cc1ccccc1)C(=O)N[C@@H](C)C(=O)N[C@@H](CO)C(=O)N[C@H](C(N)=O)C(C)C)[C@@H](C)CC [compound 183] (H-DNPSLSIDLPFYLLRTLLELARTQSQRERAEQNAIIFASV-NH2; N-terminus assumed) | 8.10 | 6.38 |  | 
4 | CC[C@H](C)[C@H](N)C(=O)N[C@H](C(=O)N[C@@H](CC(C)C)C(=O)N[C@@H](CO)C(=O)N[C@@H](CC(C)C)C(=O)N[C@@H](CC(=O)O)C(=O)N[C@H](C(=O)N1CCC[C@H]1C(=O)N[C@H](C(=O)NCC(=O)N[C@@H](CC(C)C)C(=O)N[C@@H](CC(C)C)C(=O)N[C@@H](CCC(N)=O)C(=O)N[C@H](C(=O)N[C@@H](CC(C)C)C(=O)N[C@H](C(=O)N[C@@H](CCC(=O)O)C(=O)N[C@H](C(=O)N[C@@H](CCC(=O)O)C(=O)N[C@@H](CCCCN)C(=O)N[C@@H](CCC(N)=O)C(=O)N[C@@H](CCC(=O)O)C(=O)N[C@@H](CCCCN)C(=O)N[C@@H](CCC(=O)O)C(=O)N[C@@H](CCCCN)C(=O)N[C@@H](CCC(N)=O)C(=O)N[C@@H](CCC(N)=O)C(=O)N[C@@H](C)C(=O)N[C@@H](C)C(=O)N[C@@H](CC(N)=O)C(=O)N[C@@H](CC(N)=O)C(=O)N[C@@H](CCCNC(=N)N)C(=O)N[C@@H](CC(C)C)C(=O)N[C@@H](CC(C)C)C(=O)N[C@@H](CC(C)C)C(=O)N[C@@H](CC(=O)O)C(=O)N[C@H](C(=O)N[C@H](C(N)=O)[C@@H](C)CC)[C@@H](C)O)[C@@H](C)CC)[C@@H](C)CC)[C@@H](C)CC)[C@@H](C)CC)C(C)C)C(C)C [compound 154] (H-IVLSLDVPIGLLQILIEIEKQEKEKQQAANNRLLLDTI-NH2; N-terminus assumed) |  |  | 7.99 | < 7.00
5 | NDDPPISIDLPLFLLRNMIEMARIENEREQAGLNAKYLAEV-NH2 [compound 257] | ≤ 7.00 | 6.13 |  | 
6 | CC[C@H](C)[C@H](NC(=O)[C@H](CCCNC(=N)N)NC(=O)[C@H](C)NC(=O)[C@H](CC(N)=O)NC(=O)[C@H](CCC(N)=O)NC(=O)[C@H](CCC(=O)O)NC(=O)[C@H](C)NC(=O)[C@H](CCCNC(=N)N)NC(=O)[C@H](CCC(=O)O)NC(=O)[C@H](CCCNC(=N)N)NC(=O)[C@H](CCC(N)=O)NC(=O)[C@H](CO)NC(=O)[C@H](CCC(N)=O)NC(=O)[C@@H](NC(=O)[C@H](CCCCN)NC(=O)[C@H](CCC(=O)O)NC(=O)[C@H](CC(C)C)NC(=O)[C@H](CCC(=O)O)NC(=O)[C@H](CC(C)C)NC(=O)[C@H](CC(C)C)NC(=O)[C@@H](NC(=O)[C@H](CCCNC(=N)N)NC(=O)[C@H](CC(C)C)NC(=O)[C@H](CC(C)C)NC(=O)[C@H](CC(C)C)NC(=O)[C@H](CC(C)C)NC(=O)[C@@H]1CCCN1C(=O)[C@H](CC(C)C)NC(=O)[C@H](CC(=O)O)NC(=O)[C@@H](NC(=O)[C@H](CO)NC(=O)[C@H](CC(C)C)NC(=O)[C@H](CO)NC(=O)[C@@H]1CCCN1C(=O)[C@H](CC(N)=O)NC(=O)[C@@H](N)CC(=O)O)[C@@H](C)CC)[C@@H](C)O)[C@@H](C)O)C(=O)N[C@@H](Cc1ccccc1)C(=O)N[C@@H](C)C(=O)N[C@@H](CCCNC(=N)N)C(=O)N[C@H](C(N)=O)C(C)C [compound 341] (H-DNPSLSIDLPLLLLRTLLELEKTQSQRERAEQNARIFARV-NH2; N-terminus assumed) | 8.05 | 6.07 |  | 
7 | CC[C@H](C)[C@H](N)C(=O)N[C@H](C(=O)N[C@@H](CC(C)C)C(=O)N[C@@H](CO)C(=O)N[C@@H](CC(C)C)C(=O)N[C@@H](CC(=O)O)C(=O)N[C@H](C(=O)N1CCC[C@H]1C(=O)N[C@H](C(=O)NCC(=O)N[C@@H](CC(C)C)C(=O)N[C@@H](CC(C)C)C(=O)N[C@@H](CCC(N)=O)C(=O)N[C@H](C(=O)N[C@@H](CC(C)C)C(=O)N[C@@H](CC(C)C)C(=O)N[C@@H](CCC(=O)O)C(=O)N[C@@H](CCC(N)=O)C(=O)N[C@@H](C)C(=O)N[C@@H](CCCNC(=N)N)C(=O)N[C@@H](CCC(N)=O)C(=O)N[C@@H](CCC(=O)O)C(=O)N[C@@H](C)C(=O)N[C@@H](C)C(=O)N[C@@H](CCCNC(=N)N)C(=O)N[C@@H](CCC(=O)O)C(=O)N[C@@H](CCC(N)=O)C(=O)N[C@@H](C)C(=O)N[C@H](C(=O)N[C@H](C(=O)N[C@@H](CC(N)=O)C(=O)N[C@@H](C)C(=O)N[C@@H](CCCNC(=N)N)C(=O)N[C@H](C(=O)N[C@@H](CC(C)C)C(=O)N[C@@H](C)C(=O)N[C@@H](CCCNC(=N)N)C(=O)N[C@H](C(N)=O)C(C)C)[C@@H](C)CC)[C@@H](C)O)[C@@H](C)O)[C@@H](C)CC)[C@@H](C)CC)C(C)C)C(C)C [compound 123] (H-IVLSLDVPIGLLQILLEQARQEAAREQATTNARILARV-NH2; N-terminus assumed) | 8.46 | < 6.00 |  | 
